Measurements published in US20090131320A1, “PEPTIDES MODULATING THE ACTIVITY OF THE ENGRAILED TRANSCRIPTION FACTOR” (Centre National De La Recherche Scient., priority 2003, published 2009).
Entries after “also recorded” stand apart in the source; their conditions may differ.

Tests used:
[1] = biological target: T1, chick Engrailed-2 protein (Gallus gallus, UniProt Q05917); test: Effect of peptides on activation of the MAP1B promoter by Engrailed-2 in CHP100 cells (luciferase); format: cell-based; conditions: for effect on the activation of MAP1B by Engrailed (in words): peptide + En2 cotransfected
T1 construct: expressed in transfected cells; host or cells: CHP100 neuroepithelial cell line, electroporated with pCL9mEn2
T1 sequence (Q05917 1-289): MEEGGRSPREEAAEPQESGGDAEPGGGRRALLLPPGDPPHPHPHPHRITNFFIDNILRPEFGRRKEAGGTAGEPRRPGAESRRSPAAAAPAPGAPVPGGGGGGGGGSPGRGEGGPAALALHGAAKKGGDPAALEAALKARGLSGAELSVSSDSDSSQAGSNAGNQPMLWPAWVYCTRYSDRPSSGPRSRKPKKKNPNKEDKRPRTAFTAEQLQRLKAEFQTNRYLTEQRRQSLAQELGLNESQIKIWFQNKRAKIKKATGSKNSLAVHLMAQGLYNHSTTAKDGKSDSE
Description: (§1) The transcriptional activity of Engrailed is evaluated as described by Montesinos et al. (J. Neurosci., 21, 3350-9, 2001), by measuring the expression of the luciferase reporter gene placed in the plasmid pMAP-luc under the control of a promoter that is a target for Engrailed, the MAP1B (microtubule-associated protein 1B) promoter.
(§2) Cells of the neuroepithelial line CHP 100 (Schlesinger et al, Cancer Res. 36, […], 1976) are cultured in RPMI 1640 (Life Technologies, Gaithersburg, Md.) supplemented with 16 mM glucose, 15% fetal calf serum, 5 U/ml of penicillin and 5 μg/ml of streptomycin, and cotransfected by electroporation with pMAP-luc and one of the following vectors:
(§3) pCL9mEn2 (Mainguy et al., Natural Biotechnol. 18: 746-749, 2000) which contains the sequence encoding the whole chick Engrailed-2 protein, under the control of the CMV promoter;
(§4) The electroporation is carried out with a maximum of 10 μg of plasmid DNA (2 μg of reporter plasmid pMAP-luc+variable amounts of En2 expression vector) per 8×10^5 cells in 350 μl of medium, at 1050 μF and at […]. 400 μl of medium are then added and the combination is allowed to stand for 10 min. The cells are then placed in culture, after washing, in two dishes (3.5 cm diameter).
(§5) The luciferase activity is assayed 24 hours after transfection. The cells are rinsed with PBS. Lysis buffer (20 mM Tris/H3PO4, pH 7.8, 10 mM MgCl2, 15% glycerol, 1 mM EDTA, 1% Triton-X 100, 1.25 mM ATP, 10 μg/ml luciferin) is added to the cells. After incubation at 4° C. for 30 min, the luciferase activity is measured by luminometry (Berthold Lumat LB 9501 luminometer).
The CHP100 cells are cotransfected by electroporation, as defined above, with pMAP-luc (2 μg), pCL9mEn2 or pCL9 mHDEn2C (4 μg) and 4 μg of pCS2-pep1 or pCS2-pep2.

[2] = system: Engrailed; test: Effect of peptides on the activity of Engrailed in primary cultures of mesencephalic neurons (pMAP-luc); format: cell-based; conditions: primary mouse embryonic mesencephalic neurons; for effect on the activation of the MAP1B promoter in neurons: endogenous Engrailed
Description: In order to verify the functionality of peptides 1 and 2 in a physiological cellular context, the effect of these peptides was tested in primary cultures of mouse embryonic mesencephalic neurons.
Fragments of mouse mesencephalon (embryonic day 13.5) are incubated at 24° C. for 5 min in trypsin-EDTA, then washed in a phosphate buffer, pH 7.5, supplemented with 33 mM glucose (PBS) and 10% fetal calf serum, and subsequently incubated at 37° C. for 10 min in […] of DnaseI (Sigma, Saint Louis, Mo.). The cells are dissociated mechanically, washed three times with PBS, and placed in culture at a density of 200 000 cells/cm^2, in wells pre-saturated with D,L-poly-ornithine (1.5 μg/ml) and laminin (5 μg/ml). The culture medium (MMS) consists of DMEM/F12 (1/1, Life Technologies, Cergy, France), with 33 mM glucose, 2 mM glutamine, 10 mM HEPES, pH 7.4, 9 mM NaHCO^−3, 5 U/ml of penicillin and 5 μg/ml of streptomycin. Added to MSS are 0.1% of ovalbumin, 25 μg/ml of insulin, 100 μg/ml of transferrin, 20 nM of progesterone, 60 μM of putrescine and 30 nM selenium (M2OV).
The day after the cells were placed in culture, the medium, in each well, is replaced with 600 μl of MSS, without penicillin or streptomycin. 100 μl of the transfection mixture comprising pMAP-luc (0.5 μg) and 0.5 μg of pCS2-pep1 or pCS2-pep2, and 1 mg/ml of Lipofectamine 2000 (Invitrogen) in OPTI-MEM medium (qs 100 μl), mixed beforehand for 20 min at 24° C., are added to each well. The cells are then incubated at 37° C. for 2 h 30 min. The medium is then replaced with M20V.

[3] = system: MAP1B promoter; test: MAP1B promoter luciferase reporter (pMAP-luc) in CHP 100 cells, protein or peptide alone; format: cell-based; conditions: luciferase 24 hours after transfection
Description: as §1, §2, §3
pCL9mEn2ΔH1 (Joliot et al., Curr Biol. 8: 856-863, 1998), which contains the sequence encoding the chick Engrailed-2 protein from which amino acids 36 to 46 of the homeodomain (DNA-binding sequence) have been deleted, under the control of the CMV promoter;
(§6) pCL9 mHDEn2C, which contains the sequence encoding the chick Engrailed-2 protein from which amino acids 10 to 185 have been deleted, under the control of the CMV promoter.
as §4, §5

[4] = biological target: T2, HDEn2C (chick Engrailed-2 protein from which amino acids 10 to 185 have been deleted) (Gallus gallus, UniProt Q05917, DEL10-185); test: Effect of peptides on activation of the MAP1B promoter by HDEn2C (Engrailed homeodomain) in CHP100 cells (luciferase); format: cell-based; conditions: HDEn2C + peptide cotransfected
T2 construct: expressed in transfected cells; host or cells: CHP100 neuroepithelial cell line, electroporated with pCL9 mHDEn2C
T2 sequence (Q05917 with tags, fused parts or gaps DEL10-185): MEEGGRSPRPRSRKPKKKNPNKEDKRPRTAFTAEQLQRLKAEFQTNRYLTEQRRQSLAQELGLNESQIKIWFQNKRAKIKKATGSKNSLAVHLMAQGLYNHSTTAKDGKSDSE
Description: as §1, §2, §6
as §4, with “The cells are then placed in culture, after washing, in two dishes (3.5 cm diameter).” left out
The luciferase activity is assayed 24 hours after transfection. […] After incubation at 4° C. for 30 min, the luciferase activity is measured by luminometry (Berthold Lumat LB 9501 luminometer). […]

[5] = system: Engrailed; test: In vivo effect on the transcriptional activity of Engrailed, pMAP-lacZ β-galactosidase reporter in the neural tube of chick embryos; conditions: chick embryo neural tube HH8-HH10, electroporation, 24 h
Description: The effect of pep1 or pep2 on the transcriptional activity of Engrailed was evaluated by measuring the expression of the β-galactosidase reporter gene placed in the plasmid pMAP-lacZ (described by Montesinos et al., 2001, mentioned above) under the control of the MAP1B promoter, in the neural tube of chick embryos at the HH8-HH10 stage.
The vectors pCS2-pep1 or pCS2-pep2, and also the vector pMAP-lacZ vector (each vector is used at a concentration of 1 μg/μl), were introduced by electroporation into the neural tube of chick embryos at the HH8-HH10 stage in accordance with the protocol of Muramatsu et al. (1997), with a BTX ECM 830 electroporator (4 pulses of 25 V and 50 msec) (Genetronics, San Diego, Calif.). The vectors were injected into the neural tube using a micropipette.

Molecule: SWWETQLIASSG [Peptide 1]
- effect on the activation of MAP1B by Engrailed (in words) [1]: activating effect
- increase of the activation of MAP1B by Engrailed ([1]; peptide introduced at the same time as Engrailed-2 (4 μg each vector)): approximately 50%
- effect on the activation of the MAP1B promoter in neurons [2]: increased
- activation of the MAP1B promoter by the protein or peptide alone [3]: no action
- effect on the activation of MAP1B by the HDEn2C peptide [4]: greatly increased
- effect on the activation of the MAP1B promoter in vivo (β-galactosidase) [5]: increased

Molecule: WSWNEEVWFPFT [Peptide 2]
- effect on the activation of MAP1B by Engrailed (in words) [1]: inhibitor; also recorded: inhibitory effect
- activating effect compared with peptide 1 in neurons [2]: greater than that of peptide 1
- effect on the activation of the MAP1B promoter in neurons [2]: increased
- activation of the MAP1B promoter by the protein or peptide alone [3]: no effect
- effect on the activation of MAP1B by the HDEn2C peptide [4]: increases the activation
- effect on the activation of the MAP1B promoter in vivo (β-galactosidase) [5]: increases the activation

Molecule: HOXA5: another homeodomain protein
- activation of the MAP1B promoter by the protein or peptide alone [3]: activated

Molecule: KVWDIRYTTPHA [aOTX2, reference compound]
- effect on the activation of MAP1B by Engrailed (in words) [1]: does not modify

B1: Engrailed-2: whole chick Engrailed-2 protein expressed from pCL9mEn2 under the CMV promoter (protein)
chain: T1 sequence (Q05917 1-289)
- activation of the MAP1B promoter by the protein or peptide alone [3]: capable of activating
